Experimental data reported in US11414384B2, “P300/CBP hat inhibitors” (Constellation Pharmaceuticals, Inc., priority 2018, dated 2022).

How the values were obtained:
[1] = target: p300 HAT domain (residues 1287-1666) (Homo sapiens (Human), UniProt Q09472); assay: p300 HAT SPA assay (scintillation proximity assay, acetylation of biotinylated H3(1-21) peptide); type: biochemical; settings: p300 HAT domain; average of at least 2 replicate titrations; read-out: P300 HAT SPA IC50
In short: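 Scintillation proximity readout of acetylated biotin-H3(1-21) captured on streptavidin plates after 1.5 hr at RT; enzyme was Ni2+/anion-exchange-purified HAT domain in 20 mM Hepes pH 7.5. Inhibitor IC50s calculated from the data.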

full length p300 = full length p300 (Homo sapiens (Human), UniProt Q09472); assay: full length p300 SPA assay; type: biochemical; settings: average of at least 2 replicate titrations, read-out: FL P300 IC50
Experimental: Reactions were initiated with 12.5 μL 2 μM biotinylated H3(1-21) peptide (New England Peptide) and run for 1 hr at RT, then quenched with 20 μL stop solution (200 mM Tris pH 8.0, 200 mM EDTA, 2M NaCl, 160 μM anacardic acid). 35 μL of the reaction volume was transferred to a 384-well streptavidin FlashPlate (PerkinElmer) using a Bravo liquid handler (Velocity 11) and incubated for 1.5 hr at RT. Plates were aspirated, washed with 95 μL wash buffer (15 mM Tris pH 8.5, 0.069 μM Brij-35), aspirated, sealed, and scintillation counts read on a Topcount (PerkinElmer). Data were analyzed in Genedata to determine inhibitor IC50 values.
The full length p300 SPA assay was run following the same protocol as p300 HAT SPA assay, but used 6 nM purified full length p300 (purchased from Active Motif) in place of the purified p300-HAT domain.

[2] = system: acetylation of chromatin at H3K18 (catalyzed by p300 and CBP) in HCT-116 cells; assay: H3K18Ac MSD cellular assay; type: cell-based; settings: 2 hr treatment, average of at least 2 replicate titrations
In short: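 Cellular H3K18 acetylation quantified by electrochemiluminescent MSD readout, lysates captured on anti-total-histone plates and probed with anti-H3K18ac plus Sulfo-Tag secondary. Before lysis, HCT-116 cells in RPMI/10% FBS, seeded the prior night, were exposed to compounds for 2 h at 37 °C.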

Chain of p300 HAT domain (residues 1287-1666) (Q09472 1287-1666): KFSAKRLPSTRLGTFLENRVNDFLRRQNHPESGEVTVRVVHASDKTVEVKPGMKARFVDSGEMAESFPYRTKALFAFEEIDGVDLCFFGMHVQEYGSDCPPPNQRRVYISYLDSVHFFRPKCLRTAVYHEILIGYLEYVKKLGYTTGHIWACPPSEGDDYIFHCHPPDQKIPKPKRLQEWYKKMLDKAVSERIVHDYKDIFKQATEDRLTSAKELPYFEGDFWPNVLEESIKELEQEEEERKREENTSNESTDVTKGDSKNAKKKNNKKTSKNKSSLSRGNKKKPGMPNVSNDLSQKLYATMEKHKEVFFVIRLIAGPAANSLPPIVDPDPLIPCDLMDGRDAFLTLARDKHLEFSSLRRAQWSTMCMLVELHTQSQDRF
Chain of full length p300 (Q09472 whole entry): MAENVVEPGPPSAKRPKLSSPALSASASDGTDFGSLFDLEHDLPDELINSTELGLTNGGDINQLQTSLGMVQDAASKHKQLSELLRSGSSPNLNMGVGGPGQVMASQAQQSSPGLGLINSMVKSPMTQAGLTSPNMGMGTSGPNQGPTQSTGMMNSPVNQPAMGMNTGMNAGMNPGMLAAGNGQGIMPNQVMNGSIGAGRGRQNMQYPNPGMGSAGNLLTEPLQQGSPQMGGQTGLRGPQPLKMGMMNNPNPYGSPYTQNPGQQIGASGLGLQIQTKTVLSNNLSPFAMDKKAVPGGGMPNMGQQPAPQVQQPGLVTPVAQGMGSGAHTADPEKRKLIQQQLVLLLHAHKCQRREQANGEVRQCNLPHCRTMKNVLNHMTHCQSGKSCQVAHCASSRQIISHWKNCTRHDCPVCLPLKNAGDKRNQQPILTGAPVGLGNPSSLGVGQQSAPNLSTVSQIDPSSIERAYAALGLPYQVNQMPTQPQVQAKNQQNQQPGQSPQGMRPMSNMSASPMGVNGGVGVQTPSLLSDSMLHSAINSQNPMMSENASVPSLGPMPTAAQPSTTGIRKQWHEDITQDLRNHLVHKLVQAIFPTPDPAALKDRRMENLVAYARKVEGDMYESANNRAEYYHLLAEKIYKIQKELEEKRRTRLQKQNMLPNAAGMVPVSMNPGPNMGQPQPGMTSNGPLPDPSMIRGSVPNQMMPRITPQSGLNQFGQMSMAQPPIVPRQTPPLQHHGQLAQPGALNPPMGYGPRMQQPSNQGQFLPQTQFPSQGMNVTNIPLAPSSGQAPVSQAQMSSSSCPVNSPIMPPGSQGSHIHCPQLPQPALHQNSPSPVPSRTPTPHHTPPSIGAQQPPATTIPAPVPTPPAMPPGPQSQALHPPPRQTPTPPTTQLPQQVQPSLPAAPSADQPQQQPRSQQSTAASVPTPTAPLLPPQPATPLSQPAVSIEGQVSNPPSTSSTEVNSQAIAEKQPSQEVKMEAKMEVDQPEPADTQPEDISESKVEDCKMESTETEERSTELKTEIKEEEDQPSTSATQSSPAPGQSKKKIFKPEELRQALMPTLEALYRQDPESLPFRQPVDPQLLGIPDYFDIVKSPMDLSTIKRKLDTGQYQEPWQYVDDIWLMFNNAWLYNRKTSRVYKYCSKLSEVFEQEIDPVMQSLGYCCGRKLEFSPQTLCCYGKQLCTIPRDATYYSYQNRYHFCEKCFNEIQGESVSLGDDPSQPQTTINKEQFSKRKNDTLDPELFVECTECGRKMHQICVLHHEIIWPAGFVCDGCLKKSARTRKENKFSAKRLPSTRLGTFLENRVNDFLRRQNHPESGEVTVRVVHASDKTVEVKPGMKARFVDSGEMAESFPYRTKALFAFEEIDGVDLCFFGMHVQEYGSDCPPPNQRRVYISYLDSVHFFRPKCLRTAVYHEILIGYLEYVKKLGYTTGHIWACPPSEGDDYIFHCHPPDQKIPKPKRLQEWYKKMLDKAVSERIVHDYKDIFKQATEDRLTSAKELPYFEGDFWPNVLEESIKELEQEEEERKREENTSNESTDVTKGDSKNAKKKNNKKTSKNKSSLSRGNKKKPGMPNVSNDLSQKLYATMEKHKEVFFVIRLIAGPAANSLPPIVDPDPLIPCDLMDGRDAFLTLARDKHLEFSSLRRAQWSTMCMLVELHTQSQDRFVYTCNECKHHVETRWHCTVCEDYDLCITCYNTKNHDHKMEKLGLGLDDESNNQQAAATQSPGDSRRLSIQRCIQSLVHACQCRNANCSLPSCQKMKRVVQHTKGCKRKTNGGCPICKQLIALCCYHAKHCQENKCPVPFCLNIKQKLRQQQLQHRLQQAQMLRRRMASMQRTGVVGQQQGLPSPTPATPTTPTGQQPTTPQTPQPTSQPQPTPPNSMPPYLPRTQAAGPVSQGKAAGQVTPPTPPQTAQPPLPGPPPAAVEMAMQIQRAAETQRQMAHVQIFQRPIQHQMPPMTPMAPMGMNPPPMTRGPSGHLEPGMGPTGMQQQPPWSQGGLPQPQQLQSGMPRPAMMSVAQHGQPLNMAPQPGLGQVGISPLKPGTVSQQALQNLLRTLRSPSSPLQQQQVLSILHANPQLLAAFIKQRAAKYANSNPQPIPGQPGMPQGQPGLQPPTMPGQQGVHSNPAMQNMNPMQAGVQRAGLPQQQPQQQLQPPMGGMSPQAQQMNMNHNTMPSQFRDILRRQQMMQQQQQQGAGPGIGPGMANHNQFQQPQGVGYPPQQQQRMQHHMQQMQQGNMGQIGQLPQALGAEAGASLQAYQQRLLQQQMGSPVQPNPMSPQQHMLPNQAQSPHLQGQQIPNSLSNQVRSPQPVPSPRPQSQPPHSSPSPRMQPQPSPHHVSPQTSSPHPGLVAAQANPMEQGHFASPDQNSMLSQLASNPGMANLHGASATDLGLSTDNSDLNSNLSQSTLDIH

Row | SMILES | IC50 [1] [nM] | IC50 (full length p300) [nM] | EC50 ([2]; Homo sapiens, HCT-116, 2 h) [nM] | EC50 [2] [nM]
1 | N#Cc1ccc(CCNC(C(=O)c2c[nH]c3cc(C(=O)O)ccc23)c2ccccc2)cc1 (single isomer, unassigned) [155 Isomer 1] | 2240 | 77.3 | 16700 | –
2 | NC(=O)c1ccc(CCNC(C(=O)c2c[nH]c3ccccc23)c2ccccc2)cc1 (single isomer, unassigned) [133 Isomer 2] | 2120 | 101 | 1440 | –
3 | CN(C)c1ccc(CCNC(C(=O)c2c[nH]c3ccccc23)c2ccccc2)cc1 (single isomer, unassigned) [39 Isomer 2] | 770 | 27.5 | 529 | –
4 | COc1ccc(CCNC(C(=O)c2c[nH]c3c(C)cccc23)c2ccccc2)cc1 (single isomer, unassigned) [80 Isomer 2] | 1020 | 33.5 | 817 | –
5 | CCNC(=O)c1ccc2c(C(=O)C(NCC(C)c3ccc(C#N)cc3)c3ccccc3)cnn2c1 (single isomer, unassigned) [69 Isomer 4] | 20.7 | 17.9 | 43.9 | –
6 | CNC(=O)c1ccc(CCNC(C(=O)c2c[nH]c3ccccc23)c2ccccc2)cc1 (single isomer, unassigned) [134 Isomer 2] | 5160 | 151 | 1570 | –
7 | O=C(O)c1ccc(CCNC(C(=O)c2c[nH]c3ccccc23)c2ccccc2)cc1 (single isomer, unassigned) [132 Isomer 1] | 1830 | 63.3 | 4450 | –
8 | O=C(c1c[nH]c2ccccc12)C(NCCc1ccc(C(F)(F)F)cc1)c1ccccc1 (single isomer, unassigned) [21 Isomer 1] | 715 | 100 | 91.3 | –
9 | CC(CNC(C(=O)c1cnn2cc(-c3cnn(C)c3)ccc12)c1ccccc1)c1ccc(C#N)cc1 (single isomer, unassigned) [102 Isomer 4] | 9.36 | 0.818 | 43 | –
10 | NS(=O)(=O)c1ccc(CCNC(C(=O)c2c[nH]c3cnccc23)c2ccccc2)cc1 (single isomer, unassigned) [32 Isomer 1] | 1450 | 102 | 3670 | –
11 | NS(=O)(=O)c1ccc(CCNC(C(=O)c2c[nH]c3c(Cl)cccc23)c2ccccc2)cc1 (single isomer, unassigned) [15 Isomer 2] | 1490 | 81.2 | 405 | –
12 | O=C(c1c[nH]c2ccccc12)C(NCCc1ccc(Cl)cc1)c1cccnc1 (racemic) [43 Racemic, (rac)-2-((4-chlorophenethyl)amino)-1-(1H-indol-3-yl)-2-(pyridin-3-yl)ethan-1-one] | 4210 | 145 | 3900 | –
13 | CN(C)C(=O)c1ccc2c(C(=O)C(NCCc3ccc(Cl)cc3Cl)c3ccccc3)c[nH]c2c1 (single isomer, unassigned) [152 Isomer 2] | 1260 | 28.7 | 327 | –
14 | CN(C)C(=O)Cc1ccc2c(C(=O)C(NCCc3ccc(C#N)cc3)c3ccccc3)c[nH]c2c1 (single isomer, unassigned) [63 Isomer 1] | 382 | 8.78 | 337 | –

Further lines, results first:

Row | IC50 [1] [nM] | IC50 (full length p300) [nM] | EC50 ([2]; Homo sapiens, HCT-116, 2 h) [nM] | EC50 [2] [nM] | SMILES
15 | 1090 | 178 | 546 | – | COc1ccc2c(C(=O)C(NCCc3ccc(Cl)cc3)c3ccccc3)c[nH]c2c1 (single isomer, unassigned) [60 Isomer 2]
16 | 2650 | 81.3 | 893 | – | O=C(c1c[nH]c2cc(-n3cccn3)ccc12)C(NCCc1ccc(F)cc1)c1ccccc1 (single isomer, unassigned) [118 Isomer 2]
17 | 875 | 18.2 | – | 128 | O=C(c1c[nH]c2cc(-c3ccncc3)ccc12)C(NCCc1ccc(F)cc1)c1ccccc1 (single isomer, unassigned) [82 Isomer 2]
18 | 1070 | 49.7 | 825 | – | O=C(c1c[nH]c2cc(OCc3ccccc3)ccc12)C(NCCc1ccc(F)cc1)c1ccccc1 (single isomer, unassigned) [61 Isomer 2]
19 | 839 | 14.2 | 162 | – | O=C(c1c[nH]c2cc(-n3ccnc3)ccc12)C(NCCc1ccc(F)cc1)c1ccccc1 (single isomer, unassigned) [117 Isomer 1]
20 | 2320 | 20.8 | 1690 | – | O=C(c1c[nH]c2ccccc12)C(NCCc1ccc(F)cc1)c1ccccc1 (single isomer, unassigned) [22 Isomer 2]
21 | 716 | 10.9 | 104 | – | Cn1cc(-c2ccc3c(C(=O)C(NCCc4ccc(F)cc4)c4ccccc4)c[nH]c3c2)cn1 (single isomer, unassigned) [78 Isomer 2]
22 | 808 | 12.3 | 216 | – | CN1CCN(c2ccc3c(C(=O)C(NCCc4ccc(F)cc4)c4ccccc4)c[nH]c3c2)CC1 (single isomer, unassigned) [123 Isomer 2]
